Results reported in patent US9863933B2, “Method for determining the repair activity of non-homologous end joining” (Soochow University, priority 2015, dated 2018).

Tests used:
Type in all cases: cell-based
[1] = tested on: NHEJ repair activity in 293T cells; assay: NHEJ repair activity by CRISPR/Cas9-induced HPRT mutation with siRNA co-transfection, 6-TG selection and MTT cell viability; settings: CRISPR/Cas9, 3 μg siRNA co-transfected, versus negative control siRNA
Method: The inhibiting effect of DNA-PKcs siRNA on NHEJ was determined by using a CRISPR/Cas9 technology, and the specific steps comprise:
(1) a Cas9/gRNA plasmid was constructed for HPRT gene, and the specific steps are as described in the embodiment 2.
(2) the Cas9/gRNA plasmid and DNA-PKcs siRNA were co-transfected into 293T cells. The specific steps comprise: 293T cells were inoculated into a culture dish of 6 cm, and 3 μg Cas9/gRNA plasmid and 3 μg DNA-PKcs siRNA were co-transfected into the 293T cells by using Lipofectamine 3000 when cell density reached 70%, and a negative control siRNA was transfected for the negative control group. The gene sequence of DNA-PKcs siRNA was […] (SEQ ID NO:5).
(3) the cells were treated with 6-TG. The specific steps comprise: the cells were inoculated into a 96-well plate after the transfection is performed for 24 h, then the culture medium was replaced with a DMEM culture medium containing 30 μmol/L 6-TG after cell attachment, and the cells were continually cultured for 72 h.
(§1) (4) cell viability was determined by a MTT method. The specific steps comprise: a MTT solution was added after the treatment was completed, 2 h later, the formed blue formazan particles were dissolved with DMSO, and then the light absorption value of each well was determined at OD570 nm via a microplate reader. […]

[2] = tested on: NHEJ repair activity in 293T cells; assay: NHEJ repair activity by TALEN-induced HPRT mutation, 6-TG selection and MTT cell viability; settings: for inhibition rate of NHEJ repair activity: then 30 μmol/L 6-TG 72 h
Method: The inhibiting effects of different concentrations of NU7441 on NHEJ are determined by using the TALEN technology, and the specific steps are as follows:
(1) a TALEN plasmid for HPRT gene was constructed. The specific steps comprise: a left-arm recognition sequence ATGACCTTGATTTA (SEQ ID NO:1) and a right-arm recognition sequence CCAAATCCTCAGCA (SEQ ID NO:2) of the target HPRT gene were designed according to the TALEN design principle, and the two recognition sequences were inserted into a corresponding backbone carrier according to the method indicated on the TALEN construction kit. Competent E. coli cells were transformed with the carrier, uniformly spread on a kanamycin-resistant (20 μg/ml) plate and cultured in an incubator at 37° C. for 12-16 h, then 3-5 clones were selected and inoculated in 5 ml LB culture solution (containing 20 μg/ml kanamycin), and cultured in a shaker at 250 rpm under 37° C. for 16 h, plasmids were extracted and sequenced, and the obtained sequences were compared with the designed recognition sequences, ensuring the left-arm and right-arm TALEN plasmids with correct sequences were obtained.
(2) the left-arm and right-arm TALEN plasmids were transfected into 293T cells. The specific steps comprise: 293T cells were inoculated into a culture dish of 6 cm, and 4 μg left-arm plasmids and 4 μg right-arm plasmids were transfected into the 293T cells by using Lipofectamine 3000 when cell density reached 70%.
(3) the 293T cells were treated with different concentrations of the inhibitor NU7441. […]
as §1, with “(5)” for “(4)”

[3] = tested on: NHEJ repair activity in 293T cells; assay: NHEJ repair activity by CRISPR/Cas9-induced HPRT mutation, 6-TG selection and MTT cell viability (NU7441 treatment time)
Method: The time dependence of the inhibiting effect of 2.0 μmol/L NU7441 on NHEJ was determined by using the CRISPR/Cas9 technology, specific steps were as follows:
(1) a Cas9/gRNA plasmid was constructed for HPRT gene. The specific steps comprise: a target site primer of HPRT was designed according to a gRNA design principle, wherein the forward primer is […] (SEQ ID NO:3), and the reverse primer is […] (SEQ ID NO:4). The primers were annealed to form a dimer, and the gRNA-sequence primer dimer was inserted into a Cas9/gRNA plasmid according to the method indicated on the CRISPR/Cas9 construction kit. Competent E. coli cells were transformed with the plasmid, spread on an ampicillin-resistant plate. 3-5 clones were selected and cultured in a shaker, plasmids were extracted and sequenced, and the obtained sequences were compared with the designed recognition sequences, ensuring the Cas9/gRNA plasmids with correct sequences were obtained.
(2) the Cas9/gRNA plasmids were transfected into 293T cells. […]
as §1, with “(5)” for “(4)”

| Compound | repair activity of NHEJ [1] | inhibition rate of NHEJ repair activity ([2]; 0.5 μmol/L for 4 h) | inhibition rate of NHEJ repair activity ([2]; 1.0 μmol/L for 4 h) | inhibiting effect on NHEJ repair activity ([2]; concentration increased to 2.0 μmol/L, 4 h (compared with 0.5, 1.0 μmol/L)) | inhibition rate of NHEJ repair activity ([3]; CRISPR/Cas9, 2.0 μmol/L for 1 h, then 30 μmol/L 6-TG 72 h) | inhibiting effect on NHEJ activity ([3]; CRISPR/Cas9, 2.0 μmol/L, treatment longer than 1 h (2 and 4 h)) |
| --- | --- | --- | --- | --- | --- | --- |
| DNA-PKcs siRNA: siRNA of the NHEJ repair molecule DNA-PKcs, sequence UUCUCCGAACGUGUCACGUTT (SEQ ID NO:5), synthesized by GenePharma (chemistry not given here) | inhibited significantly |  |  |  |  |  |
| O=c1cc(N2CCOCC2)oc2c(-c3cccc4c3sc3ccccc34)cccc12 [NU7441] |  | about 50% | about 50% | the inhibiting effect was reduced | about 50% | reduced over time |
